Source: ChEMBL document CHEMBL1926563, “Synthesis, antimicrobial, antimycobacterial and structure-activity relationship of substituted pyrazolo-, isoxazolo-, pyrimido- and mercaptopyrimidocyclohepta[b]indoles” (2012)
≈ marks a conversion by molar mass, not a printed value.

What was measured:
Assay type in all cases: functional
[1] = system: Klebsiella pneumoniae; test: Antibacterial activity against Klebsiella pneumoniae NCIM 2957 after 24 hrs by disk diffusion method; conditions: NCIM 2957, 24 h
[2] = system: Proteus vulgaris; test: Antibacterial activity against Proteus vulgaris NCIM 2027 assessed as zone of inhibition at 100 ug/disc after 24 hrs by disk diffusion method; conditions: NCIM 2027, 24 h, read-out: DIZ
[3] = system: Klebsiella pneumoniae; test: Antibacterial activity against Klebsiella pneumoniae NCIM 2957 assessed as zone of inhibition at 200 ug/disc after 24 hrs by disk diffusion method; conditions: NCIM 2957, 24 h, read-out: DIZ
[4] = system: Proteus vulgaris; test: Antibacterial activity against Proteus vulgaris NCIM 2027 after 24 hrs by disk diffusion method; conditions: NCIM 2027, 24 h
[5] = system: Bacillus subtilis; test: Antibacterial activity against Bacillus subtilis NCIM 2063 assessed as zone of inhibition at 200 ug/disc after 24 hrs by disk diffusion method; conditions: NCIM 2063, 24 h, read-out: DIZ
[6] = system: Bacillus subtilis; test: Antibacterial activity against Bacillus subtilis NCIM 2063 assessed as zone of inhibition at 100 ug/disc after 24 hrs by disk diffusion method; conditions: NCIM 2063, 24 h, read-out: DIZ
[7] = system: Proteus vulgaris; test: Antibacterial activity against Proteus vulgaris NCIM 2027 assessed as zone of inhibition at 200 ug/disc after 24 hrs by disk diffusion method; conditions: NCIM 2027, 24 h, read-out: DIZ
[8] = system: Staphylococcus aureus; test: Antibacterial activity against Staphylococcus aureus NCIM 5021 assessed as zone of inhibition at 100 ug/disc after 24 hrs by disk diffusion method; conditions: NCIM 5021, 24 h, read-out: DIZ
[9] = system: Bacillus subtilis; test: Antibacterial activity against Bacillus subtilis NCIM 2063 after 24 hrs by disk diffusion method; conditions: NCIM 2063, 24 h
[10] = system: Staphylococcus aureus; test: Antibacterial activity against Staphylococcus aureus NCIM 5021 after 24 hrs by disk diffusion method; conditions: NCIM 5021, 24 h
[11] = system: Staphylococcus aureus; test: Antibacterial activity against Staphylococcus aureus NCIM 5021 assessed as zone of inhibition at 200 ug/disc after 24 hrs by disk diffusion method; conditions: NCIM 5021, 24 h, read-out: DIZ
[12] = system: Klebsiella pneumoniae; test: Antibacterial activity against Klebsiella pneumoniae NCIM 2957 assessed as zone of inhibition at 100 ug/disc after 24 hrs by disk diffusion method; conditions: NCIM 2957, 24 h, read-out: DIZ
[13] = system: Aspergillus niger; test: Antifungal activity against Aspergillus niger NCIM 596 assessed as zone of inhibition at 100 ug/disc after 48 hrs by disk diffusion method; conditions: NCIM 596, 48 h, read-out: DIZ
[14] = system: Curvularia lunata; test: Antifungal activity against Curvularia lunata NCIM 716 assessed as zone of inhibition at 200 ug/disc after 48 hrs by disk diffusion method; conditions: NCIM 716, 48 h, read-out: DIZ
[15] = system: Mycobacterium tuberculosis; test: Antimycobacterial activity against Mycobacterium tuberculosis H37Rv after 7 days by resazurin microtiter plate assay; conditions: 168 h
[16] = system: Aspergillus niger; test: Antifungal activity against Aspergillus niger NCIM 596 assessed as zone of inhibition at 200 ug/disc after 48 hrs by disk diffusion method; conditions: NCIM 596, 48 h, read-out: DIZ
[17] = system: Fusarium solani; test: Antifungal activity against Fusarium solani NCIM 1330 after 48 hrs by disk diffusion method; conditions: NCIM 1330, 48 h
[18] = system: Curvularia lunata; test: Antifungal activity against Curvularia lunata NCIM 716 after 48 hrs by disk diffusion method; conditions: NCIM 716, 48 h
[19] = system: Curvularia lunata; test: Antifungal activity against Curvularia lunata NCIM 716 assessed as zone of inhibition at 100 ug/disc after 48 hrs by disk diffusion method; conditions: NCIM 716, 48 h, read-out: DIZ
[20] = system: Fusarium solani; test: Antifungal activity against Fusarium solani NCIM 1330 assessed as zone of inhibition at 200 ug/disc after 48 hrs by disk diffusion method; conditions: NCIM 1330, 48 h, read-out: DIZ
[21] = system: Aspergillus niger; test: Antifungal activity against Aspergillus niger NCIM 596 after 48 hrs by disk diffusion method; conditions: NCIM 596, 48 h
[22] = system: Fusarium solani; test: Antifungal activity against Fusarium solani NCIM 1330 assessed as zone of inhibition at 100 ug/disc after 48 hrs by disk diffusion method; conditions: NCIM 1330, 48 h, read-out: DIZ

Compound	MIC [1] [µg/mL]	zone of inhibition at 100 µg/disc [2] [mm]	zone of inhibition at 200 µg/disc [3] [mm]	MIC [4] [µg/mL]	zone of inhibition at 200 µg/disc [5] [mm]	zone of inhibition at 100 µg/disc [6] [mm]	zone of inhibition at 200 µg/disc [7] [mm]	zone of inhibition at 100 µg/disc [8] [mm]	MIC [9] [µg/mL]	MIC [10] [µg/mL]	zone of inhibition at 200 µg/disc [11] [mm]	zone of inhibition at 100 µg/disc [12] [mm]	zone of inhibition at 100 µg/disc [13] [mm]	zone of inhibition at 200 µg/disc [14] [mm]	zone of inhibition at 200 µg/disc [16] [mm]	MIC [17] [µg/mL]	MIC [18] [µg/mL]	zone of inhibition at 100 µg/disc [19] [mm]	zone of inhibition at 200 µg/disc [20] [mm]	MIC [21] [µg/mL]	also measured
O=C(N[C@H](CO)[C@H](O)c1ccc([N+](=O)[O-])cc1)C(Cl)Cl [CHLORAMPHENICOL]	12.5 (≈ 38.7 µM)	42	42	12.5 (≈ 38.7 µM)	43	38	44	35	6.25 (≈ 19.3 µM)	6.25 (≈ 19.3 µM)	41	37									
Sc1ncc2c(n1)-c1[nH]c3ccc(Cl)cc3c1CCC2	100 (≈ 331 µM)	11	14	100 (≈ 331 µM)	17	15	13	16	50 (≈ 166 µM)	50 (≈ 166 µM)	18	12	15	21	17	100 (≈ 331 µM)	50 (≈ 166 µM)	17	19	50 (≈ 166 µM)	MIC [15]: 25 µg/mL (≈ 82.8 µM); zone of inhibition at 100 µg/disc [22]: 16 mm
CC(=O)N1CCN(c2ccc(OCC3COC(Cn4ccnc4)(c4ccc(Cl)cc4Cl)O3)cc2)CC1 (stereo not given) [KETOCONAZOLE]													35	43	38	12.5 (≈ 23.5 µM)	6.25 (≈ 11.8 µM)	40	40	6.25 (≈ 11.8 µM)	zone of inhibition at 100 µg/disc [22]: 36 mm
Clc1ccc2[nH]c3c(c2c1)CCCc1conc1-3	100 (≈ 387 µM)	28	29	200 (≈ 773 µM)	34	31	30	32	50 (≈ 193 µM)	50 (≈ 193 µM)	33	26	29	33	32	100 (≈ 387 µM)	100 (≈ 387 µM)	31	35	100 (≈ 387 µM)	MIC [15]: 3.12 µg/mL (≈ 12.1 µM); zone of inhibition at 100 µg/disc [22]: 33 mm
